# Results published in publication PMC4832243, “Discovery of Potent VEGFR-2 Inhibitors based on Furopyrimidine and Thienopyrimidne Scaffolds as Cancer Targeting Agents” (Scientific Reports, 2016).
# Columns and labels:
# c-Kit = c-Kit (Homo sapiens, UniProt P10721); assay: In vitro multiple-kinase inhibition assay, c-Kit (ADP-Glo); format: biochemical
# Procedure: (§1) In vitro multiple-kinase inhibition assay. […] Kinase enzymatic activity of the tested compounds was evaluated against a reference kinase inhibitor at 10 μM (Table 2).
# (§2) The multiple kinases activity at single dose concentration of 10 μM was performed, c-Kit, c-Raf, c-Src, RET served as the enzyme source. […] Kinase-Glo Plus Luminescence kinase assay kit (Promega#V3772), ADP-Glo Luminescence assay kit was used for c-kit assay (Supplementary). […]
# (§3) mM MgCl2, 0.1 mg/ml BSA, 1 mM DTT, 10 µM ATP, Kinase substrate and VEGFR. After the enzymatic reaction, 50 µl of Kinase-Glo Plus Luminescence kinase assay solution (Promega) was added to each reaction and incubate the plate for 5 minutes at room temperature.
# (§4) Luminescence signal was measured using a BioTek Synergy 2 microplate reader. VEGFR activity assays were performed in duplicate at each concentration.
# (§5) The luminescence data were analyzed using the computer software, Graphpad Prism. The difference between luminescence intensities in the absence of VEGFR (Lut) and in the presence of VEGFR (Luc) was defined as 100 % activity (Lut – Luc). Using luminescence signal (Lu) in the presence of the compound, % activity was calculated as:
# (§6) % activity = {(Lut - Lu)/(Lut - Luc)}×100%, where Lu= the luminescence intensity in the […]
# (§7) IC50 determination for inhibitor against VEGFR was calculated. The values of % activity versus a series of compound concentrations (1 nM - 10 nM - 100 nM - 1 µM - 10 µM) were then […]
# (§8) or Hill coefficient. The IC50 value was determined by the concentration causing a half-maximal […]
# (§9) In vitro multiple-kinase inhibition assay
# The assay was performed using the same conditions for VEGFR-2 activity assay (section 5.2.1.1). The assays for c-Kit was an exception, it was performed using ADP-Glo Kinase assay reagents (Promega). It measures kinase activity by quantitating the ADP amount produced from the enzymatic reaction. The luminescent signal from the assay is correlated with the amount of ADP present and is directly correlated with the amount of kinase activity. Other conditions are same to the previous section except the final reaction volume was reduced to 25 µl. After the 40 min kinase reaction at 30 °C, 25 µl of ADP-Glo reagent was added and incubated for 45 min at room temperature followed by another 50 min incubation with 50 µl of Kinase detection mixture.
# (§10) Luminescence signal was measured using a BioTek Synergy 2 microplate reader […]
# (§11) The luminescence data were analyzed using the same computer software and the same protocol
# c-Raf = c-Raf (Homo sapiens, UniProt P04049); assay: In vitro multiple-kinase inhibition assay, c-Raf; format: biochemical
# Procedure: as §1, §2, §3, §4, §5, §6, §7, §8, §9, §10, §11
# c-Src = c-Src (Homo sapiens, UniProt P12931); assay: In vitro multiple-kinase inhibition assay, c-Src; format: biochemical
# Procedure: as §1, §2, §3, §4, §5, §6, §7, §8, §9, §10, §11
# RET = RET (Homo sapiens, UniProt P07949); assay: In vitro multiple-kinase inhibition assay, RET; format: biochemical
# Procedure: as §1, §2, §3, §4, §5, §6, §7, §8, §9, §10, §11
# [1] = Toxicity: vital organs' indices and histopathology in EAC solid tumor bearing mice; format: in vivo, Swiss albino mice; details: for Brain Index / Heart Index / Kidney Index / Liver Index: mean ± SD (n = 6)
# [2] = tested on: VEGF-induced vascular permeability (Evans Blue extravasation); assay: Miles vascular permeability assay; design: species or system mice; details: in vivo; 10 mg/kg (Fig. 15)
# Procedure: Miles Vascular Permeability Assay. One to two days prior to the experiment, mice were shaved to expose the skin. Mice were anesthetized with intra-peritoneal injection of Avertin. A sterile solution of 1% Evans Blue (EB) in PBS was prepared and 100 μl was injected IV into the tail vein, using a needle (small gauge, 27–30) at a 10–15 degree angle. The animals were then left for (30–60) min. VEGF (50 μl of 1 ng/μl) and 50 μl of PBS with 0.05% gelatin were injected intradermally using a 30-gauge needle into the skin overlying the back. After 20 min, the animals were sacrificed by cervical dislocation that is recommended to limit significant interference with vascular permeability. The skin was opened, exposed and representative pictures were taken to assess the intensity of EB […]. The Formamide/EB mixture was centrifuged and supernatant absorbance was measured at 600 nm (Shimadzu Spectrophotometer, UV-1601; Japan). extravasation was calculated as ng EB per mg tissue.
# phospho-VEGFR-2 (Tyr951) = phospho-VEGFR-2 (Tyr951) (Mus musculus, UniProt P35918); assay: Immunohistochemistry of EAC solid tumor sections, phospho-VEGFR-2; details: oral treatment of EAC-bearing mice
# active caspase 3 = assay: Immunohistochemistry of EAC solid tumor sections, active caspase 3; details: oral treatment of EAC-bearing mice
# CD31 and CD34 (% MVD) = assay: Immunohistochemistry of EAC solid tumor sections, microvessel density (CD31, CD34); details: oral treatment of EAC-bearing mice
# Sequence of c-Raf (P04049 whole entry, species assumed): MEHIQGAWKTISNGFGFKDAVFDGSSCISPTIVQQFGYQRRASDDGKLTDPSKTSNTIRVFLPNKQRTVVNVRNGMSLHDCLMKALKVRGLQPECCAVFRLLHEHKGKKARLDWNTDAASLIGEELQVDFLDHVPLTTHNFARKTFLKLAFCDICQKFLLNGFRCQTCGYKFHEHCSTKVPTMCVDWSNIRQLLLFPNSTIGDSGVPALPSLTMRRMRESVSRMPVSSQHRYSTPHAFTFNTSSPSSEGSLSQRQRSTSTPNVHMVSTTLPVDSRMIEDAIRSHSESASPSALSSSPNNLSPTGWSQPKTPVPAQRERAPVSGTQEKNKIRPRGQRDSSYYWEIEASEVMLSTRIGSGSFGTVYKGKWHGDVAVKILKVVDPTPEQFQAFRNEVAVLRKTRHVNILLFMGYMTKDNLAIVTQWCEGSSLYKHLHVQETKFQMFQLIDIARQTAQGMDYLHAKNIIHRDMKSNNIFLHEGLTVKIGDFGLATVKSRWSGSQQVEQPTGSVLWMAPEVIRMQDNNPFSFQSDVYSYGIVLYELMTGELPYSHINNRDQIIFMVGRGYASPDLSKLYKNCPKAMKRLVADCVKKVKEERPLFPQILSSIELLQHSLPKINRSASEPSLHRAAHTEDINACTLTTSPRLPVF
# Sequence of RET (P07949 29-1114, species assumed): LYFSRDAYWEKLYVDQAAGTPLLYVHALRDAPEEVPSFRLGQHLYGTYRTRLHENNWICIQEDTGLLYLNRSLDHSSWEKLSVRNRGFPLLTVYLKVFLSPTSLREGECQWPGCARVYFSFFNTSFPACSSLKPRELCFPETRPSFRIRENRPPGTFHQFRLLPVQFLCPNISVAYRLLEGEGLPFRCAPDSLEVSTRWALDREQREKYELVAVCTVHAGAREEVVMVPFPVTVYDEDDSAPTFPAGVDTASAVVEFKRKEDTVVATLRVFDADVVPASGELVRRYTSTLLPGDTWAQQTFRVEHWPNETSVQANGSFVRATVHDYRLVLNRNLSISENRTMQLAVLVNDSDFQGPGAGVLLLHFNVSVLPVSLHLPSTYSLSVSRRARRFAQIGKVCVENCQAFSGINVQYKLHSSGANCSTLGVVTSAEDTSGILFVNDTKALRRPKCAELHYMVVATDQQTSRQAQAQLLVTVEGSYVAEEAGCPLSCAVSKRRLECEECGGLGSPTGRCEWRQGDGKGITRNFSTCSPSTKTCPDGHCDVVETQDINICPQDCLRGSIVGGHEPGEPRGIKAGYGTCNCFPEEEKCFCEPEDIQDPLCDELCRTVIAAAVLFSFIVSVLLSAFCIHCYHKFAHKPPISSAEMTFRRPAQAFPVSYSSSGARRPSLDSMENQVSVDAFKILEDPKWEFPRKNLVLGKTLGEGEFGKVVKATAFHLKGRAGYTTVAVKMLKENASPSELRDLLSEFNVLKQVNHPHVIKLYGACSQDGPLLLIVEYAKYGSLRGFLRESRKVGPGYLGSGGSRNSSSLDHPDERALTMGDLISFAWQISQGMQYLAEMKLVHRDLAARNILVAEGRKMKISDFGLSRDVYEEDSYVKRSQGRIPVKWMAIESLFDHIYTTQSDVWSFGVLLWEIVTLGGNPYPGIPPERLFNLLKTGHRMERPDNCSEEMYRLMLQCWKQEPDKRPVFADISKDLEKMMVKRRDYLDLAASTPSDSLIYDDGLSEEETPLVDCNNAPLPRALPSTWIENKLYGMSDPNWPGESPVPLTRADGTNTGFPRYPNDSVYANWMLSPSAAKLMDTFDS
# Sequence of c-Src (P12931 whole entry, species assumed): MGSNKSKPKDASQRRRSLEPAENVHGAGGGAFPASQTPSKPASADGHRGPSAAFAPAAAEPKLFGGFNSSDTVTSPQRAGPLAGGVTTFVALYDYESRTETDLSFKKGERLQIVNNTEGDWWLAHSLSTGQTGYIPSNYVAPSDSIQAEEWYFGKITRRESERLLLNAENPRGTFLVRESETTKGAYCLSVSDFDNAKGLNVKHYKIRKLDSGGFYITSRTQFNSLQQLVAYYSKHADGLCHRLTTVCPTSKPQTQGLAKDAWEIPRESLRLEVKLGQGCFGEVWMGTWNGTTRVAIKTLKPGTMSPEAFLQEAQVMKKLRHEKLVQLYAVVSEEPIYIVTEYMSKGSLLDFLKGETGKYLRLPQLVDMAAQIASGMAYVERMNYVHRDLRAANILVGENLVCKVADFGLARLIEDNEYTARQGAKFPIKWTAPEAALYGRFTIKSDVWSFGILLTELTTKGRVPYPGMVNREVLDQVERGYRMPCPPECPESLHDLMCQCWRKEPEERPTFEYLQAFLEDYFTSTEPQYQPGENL
# Sequence of c-Kit (P10721 26-976): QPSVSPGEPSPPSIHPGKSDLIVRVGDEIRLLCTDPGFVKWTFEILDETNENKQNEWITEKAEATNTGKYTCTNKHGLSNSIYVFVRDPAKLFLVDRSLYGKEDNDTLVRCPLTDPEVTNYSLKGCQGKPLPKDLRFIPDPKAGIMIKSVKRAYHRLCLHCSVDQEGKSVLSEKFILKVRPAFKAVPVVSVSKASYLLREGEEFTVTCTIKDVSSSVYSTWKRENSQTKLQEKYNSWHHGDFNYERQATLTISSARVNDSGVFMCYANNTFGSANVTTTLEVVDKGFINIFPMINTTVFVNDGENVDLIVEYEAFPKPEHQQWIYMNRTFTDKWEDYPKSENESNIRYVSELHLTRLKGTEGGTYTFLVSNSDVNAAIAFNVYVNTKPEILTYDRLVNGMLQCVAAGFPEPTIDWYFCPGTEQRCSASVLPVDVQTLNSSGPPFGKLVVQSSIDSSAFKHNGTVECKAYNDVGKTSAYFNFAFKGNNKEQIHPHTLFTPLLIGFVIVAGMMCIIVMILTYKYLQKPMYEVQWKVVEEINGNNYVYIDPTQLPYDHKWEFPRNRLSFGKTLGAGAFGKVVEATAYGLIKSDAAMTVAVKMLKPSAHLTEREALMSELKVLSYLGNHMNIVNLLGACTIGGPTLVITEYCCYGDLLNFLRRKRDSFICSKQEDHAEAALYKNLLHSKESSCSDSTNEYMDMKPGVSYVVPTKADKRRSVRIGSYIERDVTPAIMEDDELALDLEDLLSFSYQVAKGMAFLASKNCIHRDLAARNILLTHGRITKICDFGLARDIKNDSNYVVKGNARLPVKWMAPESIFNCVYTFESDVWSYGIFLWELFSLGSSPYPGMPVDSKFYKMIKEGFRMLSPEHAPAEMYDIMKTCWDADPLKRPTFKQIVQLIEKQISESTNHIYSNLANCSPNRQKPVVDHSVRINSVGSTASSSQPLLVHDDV
# Sequence of phospho-VEGFR-2 (Tyr951) (P35918 20-1345): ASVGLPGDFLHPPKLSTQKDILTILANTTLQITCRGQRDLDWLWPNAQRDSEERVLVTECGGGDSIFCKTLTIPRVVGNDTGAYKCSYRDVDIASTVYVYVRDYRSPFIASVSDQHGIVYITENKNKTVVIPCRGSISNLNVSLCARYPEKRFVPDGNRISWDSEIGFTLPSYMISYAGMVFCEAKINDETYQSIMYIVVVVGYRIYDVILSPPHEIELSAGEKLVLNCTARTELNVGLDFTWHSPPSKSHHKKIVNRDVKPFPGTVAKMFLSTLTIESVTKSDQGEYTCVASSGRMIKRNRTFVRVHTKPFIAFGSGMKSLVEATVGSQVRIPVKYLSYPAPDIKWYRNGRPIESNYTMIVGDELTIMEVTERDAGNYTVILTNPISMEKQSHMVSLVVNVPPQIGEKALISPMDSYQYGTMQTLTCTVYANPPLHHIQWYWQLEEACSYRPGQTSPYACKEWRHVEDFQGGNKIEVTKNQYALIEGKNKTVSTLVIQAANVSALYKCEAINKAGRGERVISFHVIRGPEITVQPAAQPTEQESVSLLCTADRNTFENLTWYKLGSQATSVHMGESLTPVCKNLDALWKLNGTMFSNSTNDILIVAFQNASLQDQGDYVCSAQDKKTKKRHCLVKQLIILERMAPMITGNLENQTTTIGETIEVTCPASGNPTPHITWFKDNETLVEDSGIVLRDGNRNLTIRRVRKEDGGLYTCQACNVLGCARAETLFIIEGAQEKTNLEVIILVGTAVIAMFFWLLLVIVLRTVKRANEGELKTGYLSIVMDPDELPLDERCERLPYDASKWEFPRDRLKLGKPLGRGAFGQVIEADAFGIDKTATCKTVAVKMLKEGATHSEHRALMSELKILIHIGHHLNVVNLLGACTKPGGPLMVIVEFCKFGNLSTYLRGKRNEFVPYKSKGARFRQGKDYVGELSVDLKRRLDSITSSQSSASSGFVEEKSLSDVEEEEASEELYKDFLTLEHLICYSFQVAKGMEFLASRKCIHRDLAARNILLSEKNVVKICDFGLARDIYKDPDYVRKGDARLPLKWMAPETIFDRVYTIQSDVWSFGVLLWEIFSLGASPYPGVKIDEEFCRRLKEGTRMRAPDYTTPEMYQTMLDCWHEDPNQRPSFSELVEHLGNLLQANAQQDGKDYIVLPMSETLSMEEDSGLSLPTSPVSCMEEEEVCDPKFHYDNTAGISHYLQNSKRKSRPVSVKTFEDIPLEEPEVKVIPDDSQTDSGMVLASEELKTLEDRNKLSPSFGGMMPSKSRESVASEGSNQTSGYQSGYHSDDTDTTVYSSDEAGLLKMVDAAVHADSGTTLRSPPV
Structure (SMILES),inhibition at 10 µM (c-Kit) [%],inhibition at 10 µM (c-Raf) [%],inhibition at 10 µM (c-Src) [%],inhibition at 10 µM (RET) [%],Brain Index ([1]; 5 mg/kg/day po),Heart Index ([1]; 5 mg/kg/day po),Kidney Index ([1]; 5 mg/kg/day po),Liver Index ([1]; 5 mg/kg/day po),Brain Index ([1]; 10 mg/kg/day po),Heart Index ([1]; 10 mg/kg/day po),Kidney Index ([1]; 10 mg/kg/day po),Liver Index ([1]; 10 mg/kg/day po),"Histopathological examination of liver, kidney, heart and brain samples ([1]; 10 mg/kg, EAC solid tumor bearing mice (40x))","Toxicity (overall statement) ([1]; oral, 5 and 10 mg/kg/day for 8 consecutive days)",Antiangiogenic effect in Miles vascular permeability assay [2],VEGFR-2 phosphorylation in EAC solid tumor (phospho-VEGFR-2 (Tyr951)),Active caspase 3 levels in EAC solid tumor (active caspase 3),%MVD in EAC solid tumor (CD31 and CD34 (% MVD))
Cc1cccc(NC(=O)Nc2ccc(Oc3ncnc4sc5c(c34)CCCC5)cc2)c1 [Compound 21b],81,35,7,87,0.0164 ± 0.004,0.0048 ± 0.0014,0.012 ± 0.003,0.049 ± 0.01,0.0167 ± 0.004,0.0046 ± 0.0017,0.011 ± 0.003,0.051 ± 0.017,focally degenerated hepatocytes,did not show any noticeable toxicity,confirmed the antiangiogenic effects,decreased VEGFR-2 phosphoryaltion,increased active caspase 3 levels,reduction of %MVD
COc1cccc(NC(=O)Nc2ccc(Oc3ncnc4sc5c(c34)CCCC5)cc2)c1 [Compound 21c],83,26,8,91,,,,,,,,,,,,,,
